Patent US10745401B2, “Condensed lactam derivative” (Sumitomo Dainippon Pharma Co., Ltd., priority 2018, dated 2020)

Key:
hERG channel = hERG channel (Homo sapiens (Human), UniProt Q12809); experiment: Test 6-1: inhibitory activity for hERG channel (auto patch clamp, Qpatch); assay type: cell-based; settings: whole cell auto patch clamp, hERG-CHO cells; read-out: hERG inhibition IC50
In short: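 Whole-cell patch clamp on an automated system using CHO cells stably expressing human hERG (IKr); 15 s pulse interval. Four increasing compound concentrations applied cumulatively; mean peak tail current from last 3 stimulations per concentration used. IC50 from inhibition versus pre-compound current, fitted by Hill equation.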

[1] = Test 4: metabolic stability test in human hepatic microsome; assay type: in vitro ADME; settings: 0.1 mg/mL microsome, 0.1 μmol/L compound, 37° C., 30 minutes
In short: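 LC-MS quantified remaining parent after 30 min, 37° C, in pH 7.4 25 mmol/L phosphate containing 0.1 mg/mL human hepatic microsomes, 3.2 mmol/L NADPH and 0.1 μmol/L test compound. Value given as −LN(residual ratio)/30/0.1, mL/min/mg protein.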

human D2 receptor = human D2 receptor (Homo sapiens (Human), UniProt P14416); experiment: Test 1: binding activity for human D2 receptor ([3H]Spiperone, CHO cell membrane fraction); settings: human D2 receptor, [3H]Spiperone
In short: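 Compound displacement of [3H]ketanserin at 5-HT2A or [3H]spiperone at D2 was measured in CHO membrane fractions after 60 min at room temperature, with filtration and scintillation counting. IC50 was converted to Ki by Cheng–Prusoff using ligand concentration and Kd from saturation binding.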

human 5-HT1A receptor [2] = molecular target: T1, human 5-HT1A receptor (Homo sapiens (Human), UniProt P08908); experiment: Test 1: binding activity for human 5-HT1A receptor ([3H]8-OH-DPAT, CHO cell membrane fraction)
In short: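 Membranes incubated with [3H]8-OH-DPAT and compound for 60 min at room temperature, then filtered on polyethylenimine-coated glass-fibre plates and counted by liquid scintillation. IC50 from Hill analysis; Ki = IC50/(1+S/Kd), Kd from saturation binding on the same membranes.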

human 5-HT1A receptor [3] = molecular target: T1, human 5-HT1A receptor; experiment: Test 2: agonist activity for human 5-HT1A receptor ([35S]GTPγS binding); assay type: biochemical; settings: for EC50: [35S]GTPγS binding, concentration at which half the activity of Emax was obtained; for Emax at 10 µM: agonist activity in the presence of 10 μM of compound, relative to 100 μmol/L 5-HT
In short: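 [35S]GTPγS binding read-out: after 60 min at room temperature with test compound in GDP buffer, human 5-HT1A receptor CHO membranes were vacuum-filtered and retained radioactivity scintillation-counted. Agonist activity calculated by formula.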

hERG channel, sequence (Q12809 whole entry): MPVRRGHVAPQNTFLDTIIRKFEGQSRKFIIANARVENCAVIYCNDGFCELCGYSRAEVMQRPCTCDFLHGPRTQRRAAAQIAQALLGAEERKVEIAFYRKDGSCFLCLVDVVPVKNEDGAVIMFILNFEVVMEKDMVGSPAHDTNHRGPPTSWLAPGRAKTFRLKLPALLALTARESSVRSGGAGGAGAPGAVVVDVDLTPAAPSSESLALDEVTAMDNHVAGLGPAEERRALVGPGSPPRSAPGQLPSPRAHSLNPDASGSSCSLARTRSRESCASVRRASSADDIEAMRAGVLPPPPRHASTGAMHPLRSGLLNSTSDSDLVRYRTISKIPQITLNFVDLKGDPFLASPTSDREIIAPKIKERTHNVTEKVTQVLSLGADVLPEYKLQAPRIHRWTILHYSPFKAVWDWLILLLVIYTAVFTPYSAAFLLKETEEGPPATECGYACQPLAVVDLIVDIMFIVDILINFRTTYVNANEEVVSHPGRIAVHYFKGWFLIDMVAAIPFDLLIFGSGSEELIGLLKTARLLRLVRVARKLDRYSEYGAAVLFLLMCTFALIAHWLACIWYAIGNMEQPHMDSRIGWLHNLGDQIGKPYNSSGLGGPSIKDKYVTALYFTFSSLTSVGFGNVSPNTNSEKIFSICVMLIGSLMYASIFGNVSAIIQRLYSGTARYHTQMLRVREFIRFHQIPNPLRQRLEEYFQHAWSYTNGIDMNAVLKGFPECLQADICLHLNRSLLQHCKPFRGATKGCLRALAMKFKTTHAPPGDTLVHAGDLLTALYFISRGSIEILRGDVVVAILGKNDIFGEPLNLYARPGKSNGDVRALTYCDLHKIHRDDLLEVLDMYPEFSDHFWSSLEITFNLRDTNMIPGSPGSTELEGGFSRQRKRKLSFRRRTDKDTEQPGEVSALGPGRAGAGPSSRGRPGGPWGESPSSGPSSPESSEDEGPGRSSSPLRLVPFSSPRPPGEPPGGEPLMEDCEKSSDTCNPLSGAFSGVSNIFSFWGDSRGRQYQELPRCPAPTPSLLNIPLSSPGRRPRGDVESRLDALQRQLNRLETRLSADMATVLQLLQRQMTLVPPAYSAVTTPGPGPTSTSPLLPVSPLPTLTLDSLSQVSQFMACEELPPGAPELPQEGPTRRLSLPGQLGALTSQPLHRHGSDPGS
T1 sequence (P08908 whole entry): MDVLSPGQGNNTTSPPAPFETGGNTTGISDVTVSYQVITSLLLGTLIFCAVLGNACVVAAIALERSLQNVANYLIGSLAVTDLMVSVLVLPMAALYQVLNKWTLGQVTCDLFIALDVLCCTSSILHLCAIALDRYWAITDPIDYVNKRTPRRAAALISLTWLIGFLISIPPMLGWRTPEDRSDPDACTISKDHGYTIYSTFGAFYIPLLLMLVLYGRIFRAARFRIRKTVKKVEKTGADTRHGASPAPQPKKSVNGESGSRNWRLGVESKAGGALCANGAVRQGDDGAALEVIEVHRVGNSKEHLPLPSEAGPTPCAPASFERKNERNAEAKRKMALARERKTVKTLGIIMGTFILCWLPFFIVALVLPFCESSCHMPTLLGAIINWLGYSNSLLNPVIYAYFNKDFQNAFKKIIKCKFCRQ
human D2 receptor, sequence (P14416 whole entry): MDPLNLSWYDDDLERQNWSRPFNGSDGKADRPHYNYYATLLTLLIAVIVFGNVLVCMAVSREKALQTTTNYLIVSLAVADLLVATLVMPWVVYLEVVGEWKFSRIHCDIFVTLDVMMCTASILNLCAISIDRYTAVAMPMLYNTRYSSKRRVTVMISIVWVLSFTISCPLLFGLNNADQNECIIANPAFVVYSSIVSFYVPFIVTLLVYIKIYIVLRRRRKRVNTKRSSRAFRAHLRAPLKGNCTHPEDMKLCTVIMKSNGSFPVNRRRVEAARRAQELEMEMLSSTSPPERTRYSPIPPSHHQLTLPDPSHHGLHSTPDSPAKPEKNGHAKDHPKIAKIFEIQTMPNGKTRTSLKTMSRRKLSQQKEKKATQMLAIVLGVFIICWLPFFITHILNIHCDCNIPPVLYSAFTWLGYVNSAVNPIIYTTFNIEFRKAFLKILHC

Row | SMILES | IC50 (hERG channel) [nM] | Metabolic stability in human hepatic microsome [1] [mL/min/mg protein] | Ki (human D2 receptor) [nM] | Ki (human 5-HT1A receptor [2]) [nM] | EC50 (human 5-HT1A receptor [3]) [nM] | Emax at 10 µM (human 5-HT1A receptor [3]) [%]
1 | Cc1ccc2onc(C3CCN(CCN4CCc5cccnc5C4=O)CC3)c2c1 [Example 89] | 1300 | 0.050 | 2250 | 3.44 | 53.8 | 39
2 | Cc1ncc2c(n1)CCN(CCN1CCN(c3nsc4ccccc34)CC1)C2=O [Example 90] | > 10000 | 0.070 | 1070 | 6.77 | 57.7 | 65
3 | CCc1ncc2c(n1)CCN(CCN1CCN(c3nsc4ccccc34)CC1)C2=O [Example 93, 6-{2-[4-(1,2-Benzoisothiazol-3-yl)piperazin-1-yl]ethyl}-2-ethyl-7,8-dihydropyrido[4,3-d]pyrimidin-5(6H)-one] | 6600 | 0.149 | 826 | 9.36 | 15.1 | 41
4 | O=C1c2cnc(C3CC3)nc2CCN1CCN1CCN(c2nsc3ccccc23)CC1 [Example 94] | 2300 | 0.368 | 236 | 5.24 | 79.4 | 53
5 | O=C1c2cn[nH]c2CCCN1CCN1CCC(c2noc3ccccc23)CC1 [Example 97, 5-{2-[4-(1,2-Benzoisoxazol-3-yl)piperidin-1-yl]ethyl}-5,6,7,8-tetrahydropyrazolo[4,3-c]azepin-4(1H)-one] | 2600 | <0.01 | 136 | 17.6 | 447 | 42
6 | O=C1c2[nH]ncc2CCN1CCN1CCC(c2noc3ccccc23)CC1 [Example 98, 6-{2-[4-(1,2-Benzoisoxazol-3-yl)piperidin-1-yl]ethyl}-1,4,5,6-tetrahydro-7H-pyrazolo[3,4-c]pyridin-7-one] | 1100 | 0.013 | 312 | 11.6 | 755 | 43
7 | Cc1n[nH]c2c1C(=O)N(CCN1CCC(c3noc4ccccc34)CC1)CC2 [Example 99, 5-{2-[4-(1,2-Benzoisoxazol-3-yl)piperidin-1-yl]ethyl}-3-methyl-1,5,6,7-tetrahydro-4H-pyrazolo[4,3-c]pyridin-4-one] | 2900 | <0.01 | 280 | 21.5 | 185 | 40
8 | N#Cc1cc2c(cn1)C(=O)N(CCN1CCN(c3nsc4ccccc34)CC1)CC2 [Example 102, 7-{2-[4-(1,2-Benzoisothiazol-3-yl)piperazin-1-yl]ethyl}-8-oxo-5,6,7,8-tetrahydro-2,7-naphthyridine-3-carbonitrile] | 1000 | 0.194 | 852 | 0.25 | 1.1 | 74
9 | CCc1cc2c(cn1)C(=O)N(CCN1CCN(c3nsc4ccccc34)CC1)CC2 [Example 104, 2-{2-[4-(1,2-Benzoisothiazol-3-yl)piperazin-1-yl]ethyl}-6-ethyl-3,4-dihydro-2,7-naphthyridin-1(2H)-one] | 700 | 0.358 | 93 | 0.41 | 1.99 | 64
10 | Cc1nn(C)c2c1C(=O)N(CCN1CCN(c3nsc4ccccc34)CC1)CC2 [Example 105, 5-{2-[4-(1,2-Benzoisothiazol-3-yl)piperazin-1-yl]ethyl}-1,3-dimethyl-1,5,6,7-tetrahydro-4H-pyrazolo[4,3-c]pyridin-4-one] | 7900 | 0.101 | 194 | 6 | 14 | 74
11 | COc1c2c(nn1C)CCN(CCN1CCN(c3nsc4ccccc34)CC1)C2=O [Example 106, 5-{2-[4-(1,2-Benzoisothiazol-3-yl)piperazin-1-yl]ethyl}-3-methoxy-2-methyl-2,5,6,7-tetrahydro-4H-pyrazolo[4,3-c]pyridin-4-one] | 4800 | 0.244 | 804 | 1.63 | 38.4 | 74
12 | [2H]C([2H])([2H])Oc1cc2c(cn1)C(=O)N(CCN1CCN(c3nsc4ccccc34)CC1)CC2([2H])[2H] [Example 107, 2-{2-[4-(1,2-Benzoisothiazol-3-yl)piperazin-1-yl]ethyl}-6-[(^2H3)methyloxy] (4,4-^2H2)-3,4-dihydro-2,7-naphthyridin-1(2H)-one] | 1700 | 0.210 | 244 | 0.08 | 7.67 | 64
13 | Cn1c(F)cc2c1CCN(CCN1CCN(c3nsc4ccccc34)CC1)C2=O [Example 112, 5-{2-[4-(1,2-Benzoisothiazol-3-yl)piperazin-1-yl]ethyl}-2-fluoro-1-methyl-1,5,6,7-tetrahydro-4H-pyrrolo[3,2-c]pyridin-4-one] | 2200 | 0.459 | 169 | 1.58 | 9.44 | 64
14 | Cc1nc(C)c2c(=O)n(CCN3CCC(c4noc5ccccc45)CC3)ccc2n1 [Example 114, 6-{2-[4-(1,2-Benzoisoxazol-3-yl)piperidin-1-yl]ethyl}-2,4-dimethylpyrido[4,3-d]pyrimidin-5(6H)-one] | 2700 | 0.102 | 309 | 11.3 | 43.8 | 64
15 | O=c1c2ncccc2ccn1CCN1CCN(c2noc3ccccc23)CC1 [Example 117] | 4400 | <0.05 | 1740 | 36.6 | 570 | 40
16 | O=C1c2sccc2CCN1CCN1CCC(c2noc3ccccc23)CC1 [Example 126] | < 300 | 0.135 | 93 | 15.9 | 67.2 | 60
17 | O=C1c2occc2CCN1CCN1CCC(c2noc3ccccc23)CC1 [Example 127] | 600 | <0.05 | 203 | 35.7 | 56.9 | 48
18 | Cn1ncc2c1CCN(CCN1CCC(c3noc4ccccc34)CC1)C2=O [Example 130] | 1600 | <0.05 | 541 | 23.8 | 841 | 44
19 | Cc1noc2ccn(CCN3CCC(c4noc5ccccc45)CC3)c(=O)c12 [Example 132] | 700 | 0.148 | 750 | 16 | 74.5 | 59
20 | Cn1cnc2c1C(=O)N(CCN1CCC(c3noc4ccccc34)CC1)CC2 [Example 133] | 4700 | <0.05 | 914 | 327 | 290 | 26
21 | Cn1cnc2c1C(=O)N(CCN1CCC(c3noc4ccccc34)CC1)CCC2 [Example 134] | 3500 | <0.05 | 310 | 65.3 | 221 | 41
22 | Cc1cc2c(cn1)C(=O)N(CCN1CCC(c3noc4ccccc34)CC1)CC2 [Example 135] | 700 | <0.05 | 62 | 1.4 | 6.14 | 54
23 | O=C1c2cnccc2C2(CC2)CN1CCN1CCN(c2noc3ccccc23)CC1 [Example 136] | 6000 | 0.598 | 2300 | 75.8 | 562 | 30
24 | Cc1cncc2c1CCN(CCN1CCC(c3noc4ccccc34)CC1)C2=O [Example 138] | 1200 | 0.083 | 76 | 27.6 | 100 | 32
